Reference: publication PMC3163566, “Combined analysis of transcriptome and metabolite data reveals extensive differences between black and brown nearly-isogenic soybean (Glycine max) seed coats enabling the identification of pigment isogenes” (BMC Genomics, 2011)

Legend:
UGT78K2 = target: T1, UGT78K2 (Glycine max, UniProt G0WMC8); assay: HPLC-DAD and HPLC-MS/MS product detection; assay type: biochemical; details: glucose acceptor; 5 mM UDP-glucose; 30 °C, 5 min; product cyanidin-3-O-glucoside
T1 construct: full-length CDS, N-terminal His6 tag (pET-14b), E. coli BL21(DE3) pLysS, IMAC purified
T1 sequence (G0WMC8 1-447): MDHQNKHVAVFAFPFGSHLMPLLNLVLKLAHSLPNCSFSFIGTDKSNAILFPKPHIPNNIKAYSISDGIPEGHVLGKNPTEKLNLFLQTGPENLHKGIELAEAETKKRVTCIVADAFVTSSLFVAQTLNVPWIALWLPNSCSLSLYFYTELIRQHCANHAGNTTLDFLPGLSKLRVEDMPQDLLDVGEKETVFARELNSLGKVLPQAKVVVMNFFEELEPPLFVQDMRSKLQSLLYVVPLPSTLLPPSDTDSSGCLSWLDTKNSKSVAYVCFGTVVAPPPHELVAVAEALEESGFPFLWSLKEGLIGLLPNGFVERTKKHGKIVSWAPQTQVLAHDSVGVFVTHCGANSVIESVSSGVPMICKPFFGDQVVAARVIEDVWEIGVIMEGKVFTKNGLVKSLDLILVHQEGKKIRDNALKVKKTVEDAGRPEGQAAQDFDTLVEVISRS

OMT5 = target: T2, OMT5 (Glycine max, UniProt F2YBA9); assay: HPLC-DAD and HPLC-MS/MS product detection; assay type: biochemical; details: methyl acceptor; SAM 100 uM, MgCl2 150 uM, Tris pH 7.5, 35 °C, 1 h; product peonidin-3-O-glucoside
T2 construct: full-length CDS, N-terminal His6 tag (pET-14b), E. coli BL21(DE3) pLysS, IMAC purified; primers based on mRNA BT098523
T2 sequence (F2YBA9 1-248): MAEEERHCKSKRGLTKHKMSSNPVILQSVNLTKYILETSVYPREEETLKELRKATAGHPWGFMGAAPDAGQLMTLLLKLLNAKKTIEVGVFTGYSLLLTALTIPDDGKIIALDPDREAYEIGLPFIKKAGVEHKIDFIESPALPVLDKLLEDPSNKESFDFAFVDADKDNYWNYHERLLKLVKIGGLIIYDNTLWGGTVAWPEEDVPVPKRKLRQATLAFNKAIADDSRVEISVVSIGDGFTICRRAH

Compound | HPLC-DAD and HPLC-MS/MS product detection (UGT78K2) | HPLC-DAD and HPLC-MS/MS product detection (OMT5)
Oc1cc(O)c2cc(O)c(-c3ccc(O)c(O)c3)[o+]c2c1 [cyanidin] | the recombinant enzyme transferred glucose to the 3-position of cyanidin to form cyanidin-3-O-glucoside | –
OC[C@H]1O[C@@H](Oc2cc3c(O)cc(O)cc3[o+]c2-c2ccc(O)c(O)c2)[C@H](O)[C@@H](O)[C@@H]1O [cyanidin-3-O-glucoside] | – | methyl donor and cyanidin-3-O-glucoside as the acceptor, the recombinant enzyme transferred a methyl group
